According to US10421761B2, “Compounds for kinase modulation, and indications therefor” (Plexxikon Inc., priority 2013, dated 2019):
Read-outs that look alike come from different tables or passages of the source.

How the values were obtained:
B9 (HRAS Q61L) cell line = test: B9 P-ERK cell activation assay (AlphaScreen); type: cell-based, mouse; conditions: Mus musculus, P-ERK cell activation, B9, read-out: Cell activity (EC50 μM) B9_pERK
Procedure: (§1) B9 is a squamous cell carcinoma cell line expressing activated HRAS that was isolated from a DMBA/TPA-induced mouse model of skin carcinogenesis (Stoler, et al. The Journal of Cell Biology, 1993, 122(5), 1103-17). IPC-298 is a human melanoma cell line that expresses activated NRAS (Aubert, et al. International Journal of Cancer, 1993, 54(5), 784-92). To determine whether compounds induce phosphorylated ERK and MEK, cells are plated in a 96-well dish and treated with an 8-point titration of compound for one hour at 37° C. The media is then removed and the cells are incubated with lysis buffer containing protease and phosphatase inhibitors. Phosphorylated ERK and MEK in the resulting lysates is detected using AlphaScreen™ technology. To detect phosphorylated ERK, cell lysates are incubated with streptavidin-coated donor beads, anti-mouse IgG acceptor beads, a biotinylated anti-ERK1/2 rabbit antibody, and a mouse antibody that recognizes ERK1/2 only when it is phosphorylated on Thr202 and Tyr204. The biotinylated ERK1/2 antibody will bind to both the streptavidin-coated donor beads and to ERK1/2 (regardless of its phosphorylation state), and the phospho-ERK1/2 antibody will bind to the acceptor beads and to ERK1/2 that is phosphorylated at Thr202/Tyr204. Excitation of the beads with laser light at 680 nm produces singlet oxygen, which is rapidly quenched unless the beads are in close proximity. When ERK is phosphorylated, both antibodies can bind the same protein, bringing the donor and acceptor beads into close proximity, producing a signal that can be measured at 580 nm. MEK phosphorylation is detected using a similar approach, only with antibodies directed against total MEK1/2 and MEK1/2 that is phosphorylated at Ser217 and Ser221.
(§2) Phospho-ERK AlphaScreen® assay. To determine the effects of compound treatment upon phosphorylation of ERK1/2, cells were plated in a 96-well dish and treated with an 8-point titration of compound for one hour at 37° C. before lysis. To detect pERK, cell lysates were incubated with streptavidin-coated AlphaScreen® donor beads, anti-mouse IgG AlphaScreen® acceptor beads, a biotinylated anti-ERK1/2 rabbit antibody, and a mouse antibody that recognizes ERK1/2 only when it is phosphorylated on Thr202 and Tyr204. The biotinylated ERK1/2 antibody binds to both the streptavidin-coated AlphaScreen® donor beads and to ERK1/2 (regardless of its phosphorylation state), and the phospho-ERK1/2 antibody binds to the acceptor beads and to ERK1/2 that is phosphorylated at Thr202/Tyr204. An increase in ERK1/2 phosphorylation at Thr202/Tyr204 brings the donor and acceptor AlphaScreen® beads into close proximity, generating a signal that can be quantified on an EnVision reader (Perkin Elmer).

BRAF V600E = molecular target: T1, BRAF V600E (Homo sapiens, UniProt P15056, V600E); test: BRAF V600E biochemical kinase activity assay (AlphaScreen, biotin-MEK1 substrate); conditions: BRAF V600E biochemical inhibitory activity
T1 construct: purchased Upstate Biotechnology
T1 sequence (P15056 whole entry V600E): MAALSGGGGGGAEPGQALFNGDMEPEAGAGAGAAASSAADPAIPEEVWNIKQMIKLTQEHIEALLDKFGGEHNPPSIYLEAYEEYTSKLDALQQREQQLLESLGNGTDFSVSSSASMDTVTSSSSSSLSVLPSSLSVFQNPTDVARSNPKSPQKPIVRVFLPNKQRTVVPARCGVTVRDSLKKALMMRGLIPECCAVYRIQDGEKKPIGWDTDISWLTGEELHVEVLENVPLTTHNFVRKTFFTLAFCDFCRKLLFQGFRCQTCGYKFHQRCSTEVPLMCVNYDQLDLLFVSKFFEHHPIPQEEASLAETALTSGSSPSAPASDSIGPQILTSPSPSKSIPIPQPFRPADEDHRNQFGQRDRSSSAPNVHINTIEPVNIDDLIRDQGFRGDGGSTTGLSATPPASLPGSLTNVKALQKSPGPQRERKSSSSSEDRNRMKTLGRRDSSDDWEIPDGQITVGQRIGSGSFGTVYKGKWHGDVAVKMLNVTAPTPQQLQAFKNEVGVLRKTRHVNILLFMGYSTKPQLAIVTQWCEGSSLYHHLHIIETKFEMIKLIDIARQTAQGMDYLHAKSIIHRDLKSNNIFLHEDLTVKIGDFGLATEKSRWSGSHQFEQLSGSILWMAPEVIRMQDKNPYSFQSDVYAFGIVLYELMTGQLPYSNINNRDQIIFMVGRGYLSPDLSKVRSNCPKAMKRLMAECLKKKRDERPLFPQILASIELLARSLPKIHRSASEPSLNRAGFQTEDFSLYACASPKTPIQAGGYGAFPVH
Procedure: Compounds to be tested are diluted in dimethyl sulfoxide to a concentration of 0.1 mM. These are serially diluted 15 μL into 30 μL of dimethyl sulfoxide seven times in 96 well plates for a total of 8 dilution points, and for each dilution point 1 μL is added to a well of an assay plate. […] The reaction is started with addition of 10 μL of 200 μM ATP (i.e. final 100 μM ATP). After incubation of the kinase reaction for 45 minutes at room temperature, 5 μL/well of Stop Solution is added (25 mM Hepes pH 7.5, 100 mM EDTA, 0.01% BSA with donor beads (Streptavidin coated beads, Perkin Elmer), acceptor beads (Protein A coated, Perkin Elmer), and anti-phosphor MEK1/2 antibody (CellSignal), each at final concentration 10 μg/mL). The plates are incubated for 3 hours at room temperature and read on Envision reader (Perkin Elmer). Phosphorylation of Mek1 results in binding of the anti-phosphor-MEK1/2antibody and association of the donor and acceptor beads such that signal correlates with kinase activity. The signal versus compound concentration is used to determine the IC50.
The in vitro RAF kinase activities were determined by measuring phosphorylation of a biotinylated substrate peptide as described previously (Tsai, J. et al. Proc Natl Acad Sci USA 105, 3041-3046 (2008)). Compounds of formula (I), e.g., compound A, was also tested against a panel of 287 kinases at concentrations of 1 μM in duplicate. Kinases inhibited by over 50% were followed up by IC50 determination. The 287 kinases represent all major branches of the kinome phylogenetic tree. The inhibition screen of 287 kinases was carried out under contract as complementary panels at Invitrogen (Life Technologies, Wis., USA) SelectScreen™ profiling service, DiscoverX (CA, USA) KINOMEScan™ service, and Reaction Biology Corporation (PA, USA) Kinase HotSpot℠ service.

[1] = test system: IPC-298 (NRAS Q61L) cell line; test: IPC-298 P-ERK cell activation assay (AlphaScreen); type: cell-based, human; conditions: Homo sapiens, P-ERK cell activation, IPC-298, read-out: Cell activity (EC50 μM) IPC-298_P-ERK
Procedure: as §1, §2

[2] = test system: A375 (BRAF V600E) cell line; test: A375 P-ERK inhibition assay (AlphaScreen); type: cell-based, human; conditions: Homo sapiens, A-375; A375_P-ERK
Procedure: as §2

Row | EC50 (B9 (HRAS Q61L) cell line; numeric bounds) [µM] | IC50 (BRAF V600E) [µM] | EC50 ([1]; numeric bounds) [µM] | IC50 [2] [µM] | EC50 ([1]; class symbols) [µM] | EC50 (B9 (HRAS Q61L) cell line; class symbols) [µM] | Structure (SMILES)
1 | > 10 | 0.0001 to 1 | > 10 | 0.0001 to 1 | – | – | COc1ccnc2[nH]cc(C(=O)c3c(F)ccc(NS(=O)(=O)N(C)C)c3F)c12 [Compound P-2002, 3-[3-(dimethylsulfamoylamino)-2,6-difluoro-benzoyl]-4-methoxy-1H-pyrrolo[2,3-b]pyridine]
2 | > 10 | 0.0001 to 1 | > 10 | 0.0001 to 1 | – | – | CCC(C)S(=O)(=O)Nc1ccc(F)c(C(=O)c2c[nH]c3ncnc(NCC4CC4)c23)c1F (stereo not shown) [P-2056, N-[3-[4-(cyclopropylmethylamino)-7H-pyrrolo[2,3-d]pyrimidine-5-carbonyl]-2,4-difluoro-phenyl]butane-2-sulfonamide]
3 | > 10 | 0.0001 to 1 | > 10 | 0.0001 to 1 | – | – | O=C(c1c(F)ccc(NS(=O)(=O)N2CCOCC2)c1F)c1c[nH]c2ncnc(NCC3CC3)c12 [P-2054, N-[3-[4-(cyclopropylmethylamino)-7H-pyrrolo[2,3-d]pyrimidine-5-carbonyl]-2,4-difluoro-phenyl]morpholine-4-sulfonamide]
4 | > 10 | 0.0001 to 1 | > 10 | 0.0001 to 1 | – | – | COc1ccnc2[nH]cc(C(=O)c3c(F)ccc(NS(=O)(=O)N4CCCC4)c3F)c12 [Compound P-2003, N-[2,4-difluoro-3-(4-methoxy-1H-pyrrolo[2,3-b]pyridine-3-carbonyl)phenyl]pyrrolidine-1-sulfonamide]
5 | > 10 | 0.0001 to 1 | > 10 | 0.0001 to 1 | – | – | Cc1ncnc2[nH]cc(C(=O)c3cccc(NS(=O)(=O)N4CCCC4)c3F)c12 [P-2076, N-[2-fluoro-3-(4-methyl-7H-pyrrolo[2,3-d]pyrimidine-5-carbonyl)phenyl]pyrrolidine-1-sulfonamide]
6 | > 10 | 0.0001 to 1 | > 10 | 0.0001 to 1 | – | – | CCN(C)S(=O)(=O)Nc1cccc(C(=O)c2c[nH]c3ncnc(NC(C)C)c23)c1F [P-2067, 5-[3-[[ethyl(methyl)sulfamoyl]amino]-2-fluoro-benzoyl]-4-(isopropylamino)-7H-pyrrolo[2,3-d]pyrimidine]

Second part, the molecule before the results:

Row | Structure (SMILES) | EC50 (B9 (HRAS Q61L) cell line; numeric bounds) [µM] | IC50 (BRAF V600E) [µM] | EC50 ([1]; numeric bounds) [µM] | IC50 [2] [µM] | EC50 ([1]; class symbols) [µM] | EC50 (B9 (HRAS Q61L) cell line; class symbols) [µM]
7 | Cc1nc2c(-c3sc(C(C)(C)C)nc3-c3cccc(NS(=O)(=O)N4CCCC4)c3F)ncnc2[nH]1 [P-2124, N-[3-[2-tert-butyl-5-(8-methyl-9H-purin-6-yl)thiazol-4-yl]-2-fluoro-phenyl]pyrrolidine-1-sulfonamide] | > 10 | 0.0001 to 1 | > 1 | 0.0001 to 1 | – | –
8 | CN(C)S(=O)(=O)Nc1ccc(F)c(C(=O)c2c[nH]c3ncncc23)c1F [P-2026, 5-[3-(dimethylsulfamoylamino)-2,6-difluoro-benzoyl]-7H-pyrrolo[2,3-d]pyrimidine] | > 10 | 1 to 10 | > 10 | > 10 | – | –
9 | COC(=O)N[C@@H](C)CNc1nccc(-c2cn(C(C)C)nc2-c2cc(Cl)cc(NS(=O)(=O)N3CCCCC3)c2F)n1 [P-2181, methyl N-[(1S)-2-[[4-[3-[5-chloro-2-fluoro-3-(1-piperidylsulfonylamino)phenyl]-1-isopropyl-pyrazol-4-yl]pyrimidin-2-yl]amino]-1-methyl-ethyl]carbamate] | > 10 | 0.0001 to 1 | – | 0.0001 to 1 | 0.0001 to 1 | –
10 | CCN(CC)S(=O)(=O)Nc1ccc(F)c(C(=O)c2c[nH]c3nccc(C#N)c23)c1F [P-2012, 4-cyano-3-[3-(diethylsulfamoylamino)-2,6-difluoro-benzoyl]-1H-pyrrolo[2,3-b]pyridine] | > 10 | 0.0001 to 1 | > 10 | 1 to 10 | – | –
11 | CC(=O)Nc1ccc(NC(=O)c2c(F)ccc(NS(=O)(=O)C3CCCC3)c2F)cn1 [P-2035, N-(6-acetamido-3-pyridyl)-3-(cyclopentylsulfonylamino)-2,6-difluoro-benzamide] | > 10 | 0.0001 to 1 | > 10 | 1 to 10 | – | –
12 | CN(C)S(=O)(=O)Nc1cc(F)cc(C(=O)c2c[nH]c3ncc(-c4cnc(C5CC5)nc4)cc23)c1F [P-2173, 5-(2-cyclopropylpyrimidin-5-yl)-3-[3-(dimethylsulfamoylamino)-2,5-difluoro-benzoyl]-1H-pyrrolo[2,3-b]pyridine] | > 10 | 0.0001 to 1 | > 1 | 0.0001 to 1 | – | –
13 | CCN(C)S(=O)(=O)Nc1cccc(C(=O)c2c[nH]c3ncnc(N[C@@H](C)C4CC4)c23)c1F [P-2080, 4-[[(1S)-1-cyclopropylethyl]amino]-5-[3-[[ethyl(methyl)sulfamoyl]amino]-2-fluoro-benzoyl]-7H-pyrrolo[2,3-d]pyrimidine] | > 10 | 0.0001 to 1 | > 10 | 0.0001 to 1 | – | –
14 | COC(=O)N[C@@H](C)CNc1nccc(-c2sc(-c3ccccc3)nc2-c2cccc(NS(=O)(=O)N3CC[C@H](F)C3)c2F)n1 [P-2153, methyl N-[(1S)-2-[[4-[4-[2-fluoro-3-[[(3S)-3-fluoropyrrolidin-1-yl]sulfonylamino]phenyl]-2-phenyl-thiazol-5-yl]pyrimidin-2-yl]amino]-1-methyl-ethyl]carbamate] | – | 0.0001 to 1 | – | 0.0001 to 1 | 0.0001 to 1 | 0.0001 to 1
15 | O=C(c1cc(C(F)(F)F)cc(NS(=O)(=O)N2CC[C@@H](F)C2)c1F)c1c[nH]c2ncc(-c3cnc(C4CC4)nc3)cc12 [P-2178, (3R)—N-[3-[5-(2-cyclopropylpyrimidin-5-yl)-1H-pyrrolo[2,3-b]pyridine-3-carbonyl]-2-fluoro-5-(trifluoromethyl)phenyl]-3-fluoro-pyrrolidine-1-sulfonamide] | > 10 | 0.0001 to 1 | > 10 | 1 to 10 | – | –
16 | CCN(C)S(=O)(=O)Nc1cccc(C(=O)c2c[nH]c3ncnc(NC4CCC(F)(F)CC4)c23)c1F [P-2068, 4-[(4,4-difluorocyclohexyl)amino]-5-[3-[[ethyl(methyl)sulfamoyl]amino]-2-fluoro-benzoyl]-7H-pyrrolo[2,3-d]pyrimidine] | > 10 | 0.0001 to 1 | > 10 | 0.0001 to 1 | – | –
17 | Cc1cc(NS(=O)(=O)N2CC[C@@H](F)C2)c(F)c(C(=O)c2c[nH]c3ncc(-c4cnc(C5CC5)nc4)cc23)c1 [P-2182, (3R)-N-[3-[5-(2-cyclopropylpyrimidin-5-yl)-1H-pyrrolo[2,3-b]pyridine-3-carbonyl]-2-fluoro-5-methyl-phenyl]-3-fluoro-pyrrolidine-1-sulfonamide] | > 10 | 0.0001 to 1 | > 10 | – | – | –
